From patent publication US8367039B2, “Compounds for the diagnosis of diseases associated with VCAM expression” (Guerbet, priority 2007, dated 2013)

Target: T1, VCAM-1 (Mus musculus, UniProt P29533)
T1 construct: from tissue; host or cells: liver of Balb/c mice in vivo, Con-A-induced hepatitis
T1 sequence (P29533 25-739): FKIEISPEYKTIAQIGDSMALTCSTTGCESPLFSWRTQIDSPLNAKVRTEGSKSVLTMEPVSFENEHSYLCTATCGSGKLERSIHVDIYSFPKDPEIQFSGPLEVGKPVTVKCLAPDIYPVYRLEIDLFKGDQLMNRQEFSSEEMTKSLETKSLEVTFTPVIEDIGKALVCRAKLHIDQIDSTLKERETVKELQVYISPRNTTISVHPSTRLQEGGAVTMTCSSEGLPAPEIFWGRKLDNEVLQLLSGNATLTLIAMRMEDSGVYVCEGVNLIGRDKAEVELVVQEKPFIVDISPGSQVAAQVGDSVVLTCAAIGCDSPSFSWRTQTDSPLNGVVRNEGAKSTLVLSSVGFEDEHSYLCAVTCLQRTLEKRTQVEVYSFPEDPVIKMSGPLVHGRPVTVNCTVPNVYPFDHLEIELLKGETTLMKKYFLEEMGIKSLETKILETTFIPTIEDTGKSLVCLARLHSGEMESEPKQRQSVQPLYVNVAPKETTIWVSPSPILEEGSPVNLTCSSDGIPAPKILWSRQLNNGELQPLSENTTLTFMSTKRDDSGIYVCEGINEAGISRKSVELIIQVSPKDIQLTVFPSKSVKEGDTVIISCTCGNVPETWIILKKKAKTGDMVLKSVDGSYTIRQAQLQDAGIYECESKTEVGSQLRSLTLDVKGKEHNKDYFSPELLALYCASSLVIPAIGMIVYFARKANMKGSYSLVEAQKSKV
Assay: MRI in vivo on a model of Con-A-induced hepatitis in mice
Conditions: 100 μmol Gd/kg i.v., FIG. 3
Method: Before the MRI acquisition, the mice are anesthetized with pentobarbital. All the experiments are carried out on a 200 MHz Bruker spectrometer (4.7 T) equipped with a vertical magnet and with a microimaging system.
The hepatitis is induced by i.v. injection of 20 mg/kg of Con-A in Balb/c mice weighing approximately 26 g. The literature reports that VCAM-1 is massively expressed in the liver between 4 and 8 hours after the injection of Con-A. The MRI protocol is the following: (1) the precontrast MRI begins 4h30 after the injection of Con-A; (2) the contrast product is injected at the dose of 100 μmol Gd/kg approximately 5 h after the injection of Con-A; (3) several post-contrast acquisitions are carried out for 1 h30 every 7 minutes. […]
For the two models, the SI values are measured in various regions of interest (at the level of the arterial wall of the abdominal aorta or whole liver) using the OSIRIS image analysis software. […] The SI value is measured on all the image slices where the arterial wall and the liver are visible. […] The increase in the signal/noise ratio (% ΔSNR) is calculated according to the following equation: % ΔSNR=[(SIpost/SDnoise)−(SIpre/SDnoise)]/[SIpre/SDnoise]×100 where SDnoise is the standard deviation of the noise measured on a region outside the animal.

change in signal/noise ratio (% ΔSNR) of the liver over time, hepatitis versus healthy mouse: substantially identical
Compound: O=C([O-])CN1CCN(CC(=O)[O-])CCN(CC(=O)O)CCN(CC(=O)[O-])CC1.[Gd+3] [Gd-DOTA]
